Experimental data published in patent publication US20150315188A1, “COMPOUNDS AND METHODS FOR TREATMENT OF HYPERTENSION” (MEDIVATION TECHNOLOGIES, INC., priority 2012, published 2015).
pKi: −log10 of the molar value.

Experiments:
Parameters in all cases: purchased Milipore (Millipore)
[1] = biological target: T1, Human adrenergic α2A receptor (Homo sapiens, UniProt P08913); assay: Radioligand binding, adrenergic α2A (Protocol Group B); settings: for pKi: estimated Ki
T1 sequence (P08913 1-465): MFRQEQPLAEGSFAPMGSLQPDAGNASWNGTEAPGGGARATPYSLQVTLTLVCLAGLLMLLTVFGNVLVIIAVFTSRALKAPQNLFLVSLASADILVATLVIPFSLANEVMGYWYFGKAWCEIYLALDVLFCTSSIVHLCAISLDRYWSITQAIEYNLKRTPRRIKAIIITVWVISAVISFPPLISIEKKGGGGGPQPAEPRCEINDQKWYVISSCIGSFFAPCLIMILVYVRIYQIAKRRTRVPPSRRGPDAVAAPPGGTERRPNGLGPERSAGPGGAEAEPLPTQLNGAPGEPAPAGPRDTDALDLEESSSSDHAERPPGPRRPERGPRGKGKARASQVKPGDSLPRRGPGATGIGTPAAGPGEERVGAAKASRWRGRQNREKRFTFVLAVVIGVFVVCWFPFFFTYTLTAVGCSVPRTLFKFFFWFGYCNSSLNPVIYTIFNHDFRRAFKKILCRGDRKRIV
Method in brief: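 Membranes from recombinant cells expressing the receptor, in 50 mM Tris-HCl pH 7.4 with 5 mM MgCl2, 1 mM CaCl2, 0.2% BSA; compounds incubated with 2 nM [^3H]MK-912 for 60 min at 25° C. Nonspecific binding defined by 10 μM rauwolscine; filtration, counting; percent inhibition of specific binding, or estimated Ki.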

[2] = biological target: T2, Human adrenergic α2B receptor (Homo sapiens, UniProt P18089); assay: Radioligand binding, adrenergic α2B (Protocol Group B); settings: for Percentage inhibition of ligand binding, Adrenergic α2B (10 nM) / inhibition at 0.01 µM: 10 nM compound; for Percentage inhibition of ligand binding, Adrenergic α2B (10 nM) / Percentage inhibition of ligand binding, Adrenergic α2B (30 nM) / Percentage inhibition of ligand binding, Adrenergic α2B (0.1 μM) / pKi / inhibition at 0.01 µM / inhibition at 0.03 µM / inhibition at 0.1 µM: Protocol Group B; for Percentage inhibition of ligand binding, Adrenergic α2B (10 nM): 0.01 µM; for Percentage inhibition of ligand binding, Adrenergic α2B (30 nM) / inhibition at 0.03 µM: 30 nM compound; for Percentage inhibition of ligand binding, Adrenergic α2B (0.1 μM) / inhibition at 0.1 µM: 0.1 μM compound; for pKi: estimated Ki, read-out: Ki α2B; for inhibition at 0.01 µM: read-out: Percentage inhibition of ligand binding, Adrenergic α2B (10 nM); for inhibition at 0.03 µM: read-out: Percentage inhibition of ligand binding, Adrenergic α2B (30 nM); for inhibition at 0.1 µM: read-out: Percentage inhibition of ligand binding, Adrenergic α2B (0.1 μM)
T2 sequence (P18089 1-450): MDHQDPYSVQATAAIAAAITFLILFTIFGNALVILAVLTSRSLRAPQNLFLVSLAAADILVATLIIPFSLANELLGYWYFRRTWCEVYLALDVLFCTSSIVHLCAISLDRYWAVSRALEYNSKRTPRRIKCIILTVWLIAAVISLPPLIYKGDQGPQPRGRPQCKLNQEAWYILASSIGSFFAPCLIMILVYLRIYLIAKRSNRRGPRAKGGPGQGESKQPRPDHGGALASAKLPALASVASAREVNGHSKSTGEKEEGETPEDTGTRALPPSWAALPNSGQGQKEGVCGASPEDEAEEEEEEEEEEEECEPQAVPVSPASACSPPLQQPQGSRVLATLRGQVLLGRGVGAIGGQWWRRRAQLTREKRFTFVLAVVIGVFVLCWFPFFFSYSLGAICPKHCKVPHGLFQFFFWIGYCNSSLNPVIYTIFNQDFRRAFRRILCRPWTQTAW
Method in brief: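 Recombinant human α2B receptor membranes incubated with compounds in 50 mM Tris-HCl pH 7.4, 5 mM MgCl2, 1 mM CaCl2, 0.2% BSA, 1% DMSO vehicle. Non-specific binding defined with 10 μM rauwolscine. Values are percent inhibition of specific binding or estimated Ki.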

[3] = biological target: T3, Human adrenergic α1B receptor (Homo sapiens, UniProt P35368); assay: Radioligand binding, adrenergic α1B (Protocol Group B); settings: for pKi: estimated Ki
T3 sequence (P35368 1-520): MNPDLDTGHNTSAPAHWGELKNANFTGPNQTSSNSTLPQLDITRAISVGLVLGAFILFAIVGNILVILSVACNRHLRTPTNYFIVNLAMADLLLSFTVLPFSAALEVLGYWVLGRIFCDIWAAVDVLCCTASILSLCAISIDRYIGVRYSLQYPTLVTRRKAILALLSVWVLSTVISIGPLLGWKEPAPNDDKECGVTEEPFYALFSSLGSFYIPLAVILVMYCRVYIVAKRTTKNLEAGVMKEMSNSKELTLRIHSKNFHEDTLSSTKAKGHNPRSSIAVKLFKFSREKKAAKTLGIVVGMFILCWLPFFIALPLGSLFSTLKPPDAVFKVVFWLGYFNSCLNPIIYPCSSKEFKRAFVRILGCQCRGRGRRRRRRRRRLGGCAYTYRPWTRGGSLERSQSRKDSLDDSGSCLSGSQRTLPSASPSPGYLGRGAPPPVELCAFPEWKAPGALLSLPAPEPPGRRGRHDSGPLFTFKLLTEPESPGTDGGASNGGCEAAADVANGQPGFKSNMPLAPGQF
Method in brief: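 Recombinant human α1B membranes incubated with test compound and 0.3 nM [3H]prazosin, 60 min at 25 °C, in 50 mM Tris-HCl pH 7.4, 10 mM MgCl2, 1 mM EDTA; nonspecific binding with 10 μM prazosin. Filter-bound radioactivity counted; values are % inhibition of specific binding or estimated Ki.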

[4] = 3.2 nM compound, concentration series, 0.0032 µM
[5] = 10 nM compound, concentration series, 0.01 µM
[6] = 0.032 μM compound, concentration series, 0.032 µM
[7] = 0.1 μM compound, Protocol Group B
[8] = 0.3 μM compound, Protocol Group B
[9] = 0.32 μM compound, concentration series, 0.32 µM
[10] = 1 μM compound, concentration series, 1 µM
[11] = 1 nM compound, concentration series, 0.001 µM

Cc1cc(C)c2c(c1)c1c(n2CC(C)(O)c2ccncc2)CCN2CCCC12 (single isomer, unassigned) [19b]
Percentage inhibition of ligand binding, Adrenergic α2A, 3.2 nM [1, 4]: 12%
Percentage inhibition of ligand binding, Adrenergic α2A, 10 nM [1, 5]: 4%
Percentage inhibition of ligand binding, Adrenergic α2A, 0.032 μM [1, 6]: 27%
Percentage inhibition of ligand binding, Adrenergic α2A (0.1 μM) [1, 7]: 51%
Percentage inhibition of ligand binding, Adrenergic α2A (0.3 μM) [1, 8]: 77%
Percentage inhibition of ligand binding, Adrenergic α2A, 0.32 μM [1, 9]: 67%
Percentage inhibition of ligand binding, Adrenergic α2A, 1 μM [1, 10]: 84%
Percentage inhibition of ligand binding, Adrenergic α2A, 3.2 μM ([1]; 3.2 μM compound, concentration series, 3.2 µM): 95%
inhibition at 10 µM ([1]; 10 μM compound, concentration series, read-out: Percentage inhibition of ligand binding, Adrenergic α2A, 10 μM): 100%
pKi ([1]; Protocol Group B): 7.44
Percentage inhibition of ligand binding, Adrenergic α2B, 0.032 nM ([2]; 0.032 nM compound, concentration series, 32 pM): 6%
Percentage inhibition of ligand binding, Adrenergic α2B, 0.1 nM ([2]; 0.1 nM compound, concentration series, 0.0001 µM): 0%
Percentage inhibition of ligand binding, Adrenergic α2B, 0.32 nM ([2]; 0.32 nM compound, concentration series, 0.00032 µM): 2%
Percentage inhibition of ligand binding, Adrenergic α2B, 1 nM [2, 11]: 4%
Percentage inhibition of ligand binding, Adrenergic α2B, 3.2 nM [2, 4]: 31%
Percentage inhibition of ligand binding, Adrenergic α2B (10 nM) [2]: 91%
Percentage inhibition of ligand binding, Adrenergic α2B (30 nM) ([2]; 0.03 µM): 97%
Percentage inhibition of ligand binding, Adrenergic α2B, 0.032 μM [2, 6]: 95%
Percentage inhibition of ligand binding, Adrenergic α2B (0.1 μM) [2]: 99%
pKi [2]: 8.62
Percentage inhibition of ligand binding, Adrenergic α1B, 1 nM [3, 11]: 3%
Percentage inhibition of ligand binding, Adrenergic α1B, 3.2 nM [3, 4]: 6%
Percentage inhibition of ligand binding, Adrenergic α1B, 10 nM [3, 5]: 1%
Percentage inhibition of ligand binding, Adrenergic α1B, 0.032 μM [3, 6]: 15%
Percentage inhibition of ligand binding, Adrenergic α1B (0.1 μM) [3, 7]: 60%
Percentage inhibition of ligand binding, Adrenergic α1B (0.3 μM) [3, 8]: 85%
Percentage inhibition of ligand binding, Adrenergic α1B, 0.32 μM [3, 9]: 76%
Percentage inhibition of ligand binding, Adrenergic α1B, 1 μM [3, 10]: 87%
inhibition at 3.2 µM ([3]; 3.2 μM compound, concentration series, read-out: Percentage inhibition of ligand binding, Adrenergic α1B, 3.2 μM): 92%
pKi ([3]; Protocol Group B): 7.43

CC(O)(Cn1c2c(c3cc(F)ccc31)C1CCCN1CC2)c1ccncc1 (single isomer, unassigned) [31a]
inhibition at 0.1 µM ([1]; 0.1 μM compound, Protocol Group B, read-out: Percentage inhibition of ligand binding, Adrenergic α2A (0.1 μM)): 33%
inhibition at 0.3 µM ([1]; 0.3 μM compound, Protocol Group B, read-out: Percentage inhibition of ligand binding, Adrenergic α2A (0.3 μM)): 48%
pKi ([1]; Protocol Group B): 6.55
inhibition at 0.01 µM [2]: 72%
inhibition at 0.03 µM [2]: 90%
inhibition at 0.1 µM [2]: 96%
pKi [2]: 8.66
inhibition at 0.1 µM ([3]; 0.1 μM compound, Protocol Group B, read-out: Percentage inhibition of ligand binding, Adrenergic α1B (0.1 μM)): 24%
inhibition at 0.3 µM ([3]; 0.3 μM compound, Protocol Group B, read-out: Percentage inhibition of ligand binding, Adrenergic α1B (0.3 μM)): 47%
pKi ([3]; Protocol Group B): 6.84

CC(O)(Cn1c2c(c3cc(F)ccc31)C1CCCN1CC2)c1ccncc1 (single isomer, unassigned) [31b]
Percentage inhibition of ligand binding, Adrenergic α2A (0.1 μM) [1, 7]: 26%
Percentage inhibition of ligand binding, Adrenergic α2A (0.3 μM) [1, 8]: 38%
pKi ([1]; Protocol Group B): 6.44
Percentage inhibition of ligand binding, Adrenergic α2B (10 nM) [2]: 68%
Percentage inhibition of ligand binding, Adrenergic α2B (30 nM) [2]: 90%
Percentage inhibition of ligand binding, Adrenergic α2B (0.1 μM) [2]: 97%
pKi [2]: 8.59
Percentage inhibition of ligand binding, Adrenergic α1B (0.1 μM) [3, 7]: 30%
Percentage inhibition of ligand binding, Adrenergic α1B (0.3 μM) [3, 8]: 50%
pKi ([3]; Protocol Group B): 6.87

Cc1ccc2c(c1)c1c(n2CC(OC2CCCC2)c2ccncc2)CCN(C)C1 (single isomer, unassigned) [35a]
Percentage inhibition of ligand binding, Adrenergic α2A (0.1 μM) [1, 7]: 67%
Percentage inhibition of ligand binding, Adrenergic α2A (0.3 μM) [1, 8]: 86%
pKi ([1]; Protocol Group B): 7.55
inhibition at 0.01 µM [2]: 63%
inhibition at 0.03 µM [2]: 86%
inhibition at 0.1 µM [2]: 96%
pKi [2]: 8.54
Percentage inhibition of ligand binding, Adrenergic α1B (0.1 μM) [3, 7]: 40%
Percentage inhibition of ligand binding, Adrenergic α1B (0.3 μM) [3, 8]: 71%
pKi ([3]; Protocol Group B): 7.22
